The test system of one series is S. aureus ATCC 25923. Kind of series: MIC, broth dilution, S. aureus. The class given is cell-based, Staphylococcus aureus. The settings on record: Staphylococcus aureus, ATCC25923; S. aureus ATCC 25923, 18 h; read-out: MIC Sa.
In the next series the test system is MRSA ATCC 43300. Kind of series: MIC, broth microdilution (CO-ADD), MRSA. The class given is cell-based, methicillin-resistant S. aureus. The settings on record: Staphylococcus aureus; MRSA ATCC 43300; top dose 32 µg/mL; read-out: MIC MRSA. (In general: In broth dilution the organism is exposed to a series of concentrations in liquid medium.)
Series [1] relates to P. aeruginosa ATCC 27853. Kind of series: MIC, broth dilution, P. aeruginosa. The class given is cell-based, Pseudomonas aeruginosa. The settings on record: Pseudomonas aeruginosa, ATCC27853; P. aeruginosa ATCC 27853, 18 h; read-out: MIC Pa.
Series [2] deals with E. coli ATCC 25922. Description: MIC, broth dilution, E. coli. The class given is cell-based, Escherichia coli. The settings on record: Escherichia coli, ATCC25922; E. coli ATCC 25922, 18 h.
The next series concerns A. baumannii ATCC 19606. Description: MIC, broth microdilution (CO-ADD), A. baumannii. The settings on record: Acinetobacter baumannii, ATCC19606, top dose 32 µg/mL. The class given is cell-based, Acinetobacter baumannii.
Another series concerns C. albicans ATCC 90028. Description: Antifungal MIC (CO-ADD), C. albicans. The class given is cell-based. The settings on record: Candida albicans, ATCC90028, top dose 32 µg/mL. In a few lines:
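Yeast inocula prepared from YPD-agar colonies grown 3 days at 30 °C, diluted in YNB broth to 2.5 × 10^3 CFU/mL and incubated 36 h at 35 °C without shaking. C. albicans MIC read at OD530; C. neoformans MIC read at OD570–600 after 3 h with 0.006% resazurin.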

Series [3] has as its system C. neoformans ATCC 208821. Description: Antifungal MIC (CO-ADD), C. neoformans. The class given is cell-based. The settings on record: Cryptococcus neoformans, ATCC208821, top dose 32 µg/mL. The procedure: For the antifungal assay, fungi strains were cultured for 3 days on YPD agar at 30 °C. A yeast suspension of 1 × 10^6 to 5 × 10^6 CFU/mL was prepared from five colonies. These stock suspensions were diluted with a yeast nitrogen base (YNB) (Becton Dickinson, 233520, New South Wales, Australia) broth to a final concentration of 2.5 × 10^3 CFU/mL. […] The plates were covered and incubated at 35 °C for 36 h without shaking. C. albicans MICs were determined by measuring the absorbance at OD530. For C. neoformans, resazurin was added at a 0.006% final concentration to each well and incubated for a further 3 h before the MICs were determined by measuring the absorbance at OD570–600. […] Fluconazole was used as a positive fungal inhibitor standard for C. albicans and C. neoformans. […] The quality control (QC) of the assays was determined by the antimicrobial controls and the Z′-factor (using positive and negative controls).

Series [4] has as its system P. aeruginosa ATCC 27853. Kind of series: Doxycycline potentiation against P. aeruginosa. The class given is cell-based, Pseudomonas aeruginosa. The settings on record: doxycycline at 2 µg/mL (4.5 µM); for Dox/Pa fold-change (intrinsic MIC / combination MIC): P. aeruginosa ATCC 27853; for Dox/Pa: concentration required to restore doxycycline activity (combination MIC): P. aeruginosa ATCC 27853, mean n = 3. An excerpt:
(§1) These measurements were independently repeated in triplicate.

Series [5] concerns E. coli ATCC 25922. Description: Erythromycin potentiation against E. coli. The settings on record: erythromycin at 2 µg/mL (2.7 µM); for Erythro/Ec fold-change (intrinsic MIC / combination MIC): E. coli; for Erythro/Ec: concentration required to restore erythromycin activity (combination MIC): mean n = 3. The class given is cell-based, Escherichia coli.
Text: as §1

Series [6] can be described thus: Cytotoxicity assay (resazurin). The settings on record: human, HEK293 cells, mean n = 2. The class given is cell-based. For orientation: Alamar Blue is a resazurin reagent that responds to reducing activity.
The next series has as its system human red blood cells. Kind of series: Hemolytic assay. The class given is cell-based. The settings on record: 10% hemolytic activity, mean n = 2. The method, boiled down:
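Washed human erythrocytes (0.5 × 10^8 cells/mL in 0.9% NaCl) were incubated with compounds for 1 h at 37 °C. Haemoglobin release was read as supernatant OD405. HC10 and HC50 came from sigmoidal dose–response fits.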

Series [7] concerns K. pneumoniae ATCC 700603. Kind of series: MIC, broth microdilution (CO-ADD), K. pneumoniae. The settings on record: top dose 32 µg/mL.

Values after ≈ are worked out from the molar mass of the structure shown. A value given as a limit tells only on which side of the number the result lay.

As to `Cc1ccc2[nH]cc(C(=O)NCCCNCCCCCCCCCCNCCCNC(=O)c3c[nH]c4ccc(C)cc34)c2c1` [Compound 15e], the minimal inhibitory concentration (MIC) with S. aureus ATCC 25923 is 3.77 µM (≈ 2.27 µg/mL); in the series with MRSA ATCC 43300 it was at most 0.3 µM; in the series with P. aeruginosa ATCC 27853 [1], 60.3 µM (≈ 36.2 µg/mL); in the series on E. coli ATCC 25922 [2], 30.2 µM (≈ 18.1 µg/mL); in the series with A. baumannii ATCC 19606, 19.3 µM (≈ 11.6 µg/mL); in the series with C. albicans ATCC 90028, at most 0.3 µM. The MIC in series [3] is at most 0.3 µM. Also, the “Dox/Pa fold-change (intrinsic MIC / combination MIC)” value in the series with P. aeruginosa ATCC 27853 [4] was found to be 4 fold. In the series with P. aeruginosa ATCC 27853 [4], the “Dox/Pa: concentration required to restore doxycycline activity (combination MIC)” value (“Dox/Pa: concentration required” for short) is 15.1 µM. Further, in the series on E. coli ATCC 25922 [5], the “Erythro/Ec fold-change (intrinsic MIC / combination MIC)” value stood at 4 fold. The “Erythro/Ec: concentration required to restore erythromycin activity (combination MIC)” value (“Erythro/Ec: concentration required” for short) in the series on E. coli ATCC 25922 [5] stood at 7.54 µM. Also, the concentration for half-maximal inhibition (IC50) at 20 h in [6] was over 39 µM. Further, the “Hemolysis HC10” value in the series on human red blood cells is on record as over 39 µM. For the same molecule, in series [7], the “MIC Kp” value is on record as over 39 µM.
Regarding `Cc1ccc2[nH]cc(C(=O)NCCCNCCCCCCCCCCCCNCCCNC(=O)c3c[nH]c4ccc(C)cc34)c2c1.O=C(O)C(F)(F)F.O=C(O)C(F)(F)F` [Compound 15f], the minimal inhibitory concentration (MIC) in the series with S. aureus ATCC 25923 was 3.65 µM; in the series with MRSA ATCC 43300, at most 0.29 µM; in the series on P. aeruginosa ATCC 27853 [1], 58.3 µM; in the series with E. coli ATCC 25922 [2], 29.2 µM; in the series with A. baumannii ATCC 19606, at most 0.29 µM; against C. albicans ATCC 90028, at most 0.29 µM. In addition, in [3], the minimum inhibitory concentration (MIC) is at most 0.29 µM. The “Dox/Pa fold-change (intrinsic MIC / combination MIC)” value in the series on P. aeruginosa ATCC 27853 [4] worked out at 0.5 fold. For the same molecule, in the series with P. aeruginosa ATCC 27853 [4], the “Dox/Pa: concentration required” value was 117 µM. Besides, the “Erythro/Ec fold-change (intrinsic MIC / combination MIC)” value in the series on E. coli ATCC 25922 [5] was 1 fold. Further, the “Erythro/Ec: concentration required” value in the series on E. coli ATCC 25922 [5] is 29.2 µM. In addition, the IC50 at 20 h in [6] was 0.55 µM. In addition, the “Hemolysis HC10” value with human red blood cells is over 37 µM. Further, the “MIC Kp” value in series [7] is recorded as over 37.3 µM.
For `O=C(NCCCNCCCCCCCNCCCNC(=O)c1c[nH]c2c(F)cccc12)c1c[nH]c2c(F)cccc12` [Compound 16c], the MIC in the series on S. aureus ATCC 25923 is over 251 µM; in the series with MRSA ATCC 43300, at most 0.31 µM; with P. aeruginosa ATCC 27853 [1] it was 251 µM (≈ 142 µg/mL); in the series on E. coli ATCC 25922 [2], over 251 µM; in the series with A. baumannii ATCC 19606, over 40 µM; against C. albicans ATCC 90028 it was over 40 µM. In series [3], this molecule registered an MIC of at most 0.31 µM. For the same molecule, in the series with P. aeruginosa ATCC 27853 [4], the “Dox/Pa fold-change (intrinsic MIC / combination MIC)” value is over 4 fold. Besides, the “Dox/Pa: concentration required” value in the series with P. aeruginosa ATCC 27853 [4] is listed as 62.9 µM. Besides, in the series on E. coli ATCC 25922 [5], the “Erythro/Ec fold-change (intrinsic MIC / combination MIC)” value is given as 1 fold. In addition, in the series on E. coli ATCC 25922 [5], the “Erythro/Ec: concentration required” value is reported as 252 µM. Besides, in series [6], the IC50 at 20 h was over 40 µM. Moreover, in the series on human red blood cells, the “Hemolysis HC10” value was over 40 µM. Besides, the “MIC Kp” value in series [7] was over 40 µM.
With `O=C(NCCCNCCCCCCCCNCCCNC(=O)c1c[nH]c2c(F)cccc12)c1c[nH]c2c(F)cccc12` [Compound 16d], the MIC in the series with S. aureus ATCC 25923 is 247 µM (≈ 143 µg/mL); with MRSA ATCC 43300 it was 9.89 µM (≈ 5.74 µg/mL); in the series on P. aeruginosa ATCC 27853 [1], 247 µM (≈ 143 µg/mL); in the series with E. coli ATCC 25922 [2] it was 247 µM (≈ 143 µg/mL); in the series on A. baumannii ATCC 19606, over 40 µM; in the series on C. albicans ATCC 90028, over 40 µM. In [3], the minimum inhibitory concentration (MIC) was at most 0.31 µM. Also, the “Dox/Pa fold-change (intrinsic MIC / combination MIC)” value with P. aeruginosa ATCC 27853 [4] is reported as over 8 fold. In the series with P. aeruginosa ATCC 27853 [4], the “Dox/Pa: concentration required” value is recorded as 30.9 µM. The “Erythro/Ec fold-change (intrinsic MIC / combination MIC)” value in the series with E. coli ATCC 25922 [5] turned out to be 1 fold. Besides, the “Erythro/Ec: concentration required” value in the series with E. coli ATCC 25922 [5] was determined as 247 µM. This molecule also displayed an IC50 at 20 h in series [6] of over 40 µM. For the same molecule, the “Hemolysis HC10” value in the series on human red blood cells is reported as over 40 µM. Moreover, in [7], the “MIC Kp” value was over 40 µM.
`O=C(NCCCNCCCCCCCCCCNCCCNC(=O)c1c[nH]c2c(F)cccc12)c1c[nH]c2c(F)cccc12` [Compound 16e]: the minimal inhibitory concentration (MIC) in the series with S. aureus ATCC 25923 was 239 µM (≈ 145 µg/mL); with MRSA ATCC 43300, at most 0.3 µM; in the series on P. aeruginosa ATCC 27853 [1] it was 239 µM (≈ 145 µg/mL); against E. coli ATCC 25922 [2] it was 239 µM (≈ 145 µg/mL); with A. baumannii ATCC 19606 it was over 38 µM; against C. albicans ATCC 90028, at most 0.3 µM. Further, the MIC in series [3] was at most 0.3 µM. Further, the “Dox/Pa fold-change (intrinsic MIC / combination MIC)” value in the series on P. aeruginosa ATCC 27853 [4] was 8 fold. For the same molecule, the “Dox/Pa: concentration required” value with P. aeruginosa ATCC 27853 [4] is reported as 29.9 µM. In the series with E. coli ATCC 25922 [5], the “Erythro/Ec fold-change (intrinsic MIC / combination MIC)” value was found to be 1 fold. In addition, the “Erythro/Ec: concentration required” value in the series on E. coli ATCC 25922 [5] stood at 239 µM. Also, the IC50 at 20 h in series [6] was over 38 µM. Further, the “Hemolysis HC10” value with human red blood cells is given as over 38 µM. For the same molecule, in series [7], the “MIC Kp” value was over 38 µM.

As usually defined, the MIC is the lowest concentration found to suppress growth. One may read the IC50 as the midpoint of a concentration-inhibition curve. Low readings indicate higher potency, high ones lower potency.

For the origin of these results see paper PMC10967822, “Antimicrobial Indole-3-Carboxamido-Polyamine Conjugates Target Bacterial Membranes and Are Antibiotic Potentiators” (Biomolecules, 2024).
